What was measured:
Assay type in all cases: physicochemical
[1] = Experimental Example 2: comparison of hygroscopicity by weight gain over time (62 to 64% RH); conditions: 24° C.
Protocol: In the same manner as in Experimental Example 1, L-Ala-OEt MsOH salt and L-Ala-OMe HCl salt were measured into a glass container in an amount of 0.6 g each, left under conditions of temperature: 24° C., humidity: 62 to 64% RH, and then the hygroscopicity was compared based on the weight gain with the lapse of time.

[2] = Experimental Example 5: comparison of hygroscopicity by weight gain over time (60 to 66% RH); conditions: 24 EC
Protocol: The L-Ala-OMe HCl salt, L-Ala-OEt MsOH salt, L-Ala-OEt BsOH salt, L-Ala-OEt 4-CBS salt, L-Ala-OEt 4-EBS salt, L-Ala-OEt 2,4-DMBS salt, and L-Ala-OEt 2,5-DMBS salt were measured in an amount of about 0.3 g each, left standing in a thermostatic chamber at a temperature of 24 EC and a humidity of 60 to 66% RH, and the hygroscopicity was compared based on the weight gain with the lapse of time.

[3] = Experimental Example 7: evaluation of hygroscopicity by weight gain over time (60 to 66% RH); conditions: 24 EC
Protocol: The L-Ala-OMe HCl salt, L-Ala-OMe 4-EBS salt, L-Ala-OMe 2,4-DMBS salt, and L-Ala-OMe 2,5-DMBS salt were measured in an amount of about 0.3 g each, left standing in a thermostatic chamber at temperature of 24 EC and a humidity of 60 to 66% RH, and the hygroscopicity was compared based on the weight gain with the lapse of time. A part of the crystal of the L-Ala-OMe HCl salt was liquefied in 10 minutes, and the entirety became a sherbet in 20 minute. The liquefied portion increased thereafter with the lapse of time. After 80 minutes, the whole was liquefied.

With `COC(=O)[C@H](C)N.Cl` [L-Ala-OMe HCl salt, alanine methyl ester hydrochloride, reference compound] the “time to liquefaction of a part of the crystals” value [1] was 20 min, the “time until the entire salt became liquid” value [1] was 155 min and the “weight increase rate (% relative to initial weight)” value ([1]; 0 minutes) was 0.00%. For the same compound, the “weight increase rate (% relative to initial weight)” value ([1]; 10 minutes) was 0.11%, the “state of the crystals” value ([1]; 20 minutes) was “(partly liquefied)” and the “weight increase rate (% relative to initial weight)” value ([1]; 20 minutes) was 0.54%. For the same compound, the “weight increase rate (% relative to initial weight)” value ([1]; 35 minutes) was 1.04%, the “weight increase rate (% relative to initial weight)” value ([1]; 50 minutes) was 1.67% and the “state of the crystals” value ([1]; 65 minutes) was “(whole sherbet)”. For the same compound, the “weight increase rate (% relative to initial weight)” value ([1]; 65 minutes) was 2.27%, the “weight increase rate (% relative to initial weight)” value ([1]; 80 minutes) was 2.83% and the “weight increase rate (% relative to initial weight)” value ([1]; 95 minutes) was 3.36%. For the same compound, the “weight increase rate (% relative to initial weight)” value ([1]; 110 minutes) was 3.97%, the “weight increase rate (% relative to initial weight)” value ([1]; 125 minutes) was 4.54% and the “weight increase rate (% relative to initial weight)” value ([1]; 140 minutes) was 5.13%. For the same compound, the “state of the crystals” value ([1]; 155 minutes) was “(whole liquid)”, the “weight increase rate (% relative to initial weight)” value ([1]; 155 minutes) was 5.48% and the “weight increase rate (% relative to initial weight)” value ([1]; 170 minutes) was 6.02%. The “weight increase rate (% relative to initial weight)” value ([1]; 185 minutes) was 6.56%, the “weight increase rate (% relative to initial weight)” value ([1]; 200 minutes) was 7.03% and the “time until a part of the crystal was liquefied” value [2] was 35 min. For the same compound, the “time until the whole mass was like a sherbet” value [2] was 125 min, the “weight increase rate (%)” value ([2]; 0 minutes) was 0.00% and the “weight increase rate (%)” value ([2]; 10 minutes) was 3.03%. The “weight increase rate (%)” value ([2]; 20 minutes) was 4.85%, the “weight increase rate (%)” value ([2]; 35 minutes) was 7.30% and the “weight increase rate (%)” value ([2]; 50 minutes) was 8.84%. The “weight increase rate (%)” value ([2]; 65 minutes) was 10.42%, the “weight increase rate (%)” value ([2]; 80 minutes) was 11.65% and the “weight increase rate (%)” value ([2]; 95 minutes) was 12.77%. The “weight increase rate (%)” value ([2]; 110 minutes) was 13.69%, the “weight increase rate (%)” value ([2]; 125 minutes) was 14.74% and the “weight increase rate (%)” value ([2]; 140 minutes) was 15.46%. The “weight increase rate (%)” value ([2]; 155 minutes) was 16.23%, the “weight increase rate (%)” value ([2]; 170 minutes) was 16.88% and the “weight increase rate (%)” value ([2]; 185 minutes) was 17.43%. The “weight increase rate (%)” value ([2]; 200 minutes) was 17.77%, the “time until a part of the crystal was liquefied” value [3] was 10 min and the “time until the entirety became a sherbet” value [3] was 20 min. The “time until the whole was liquefied” value [3] was 80 min, the “weight increase rate (%)” value ([3]; 0 min) was 0.00% and the “state of the crystals” value ([3]; 10 min) was “(partly liquefied)”. For the same compound, the “weight increase rate (%)” value ([3]; 10 min) was 6.74%, the “state of the crystals” value ([3]; 20 min) was “(sherbet state)” and the “weight increase rate (%)” value ([3]; 20 min) was 10.06%. For the same compound, the “weight increase rate (%)” value ([3]; 35 min) was 12.52%, the “weight increase rate (%)” value ([3]; 50 min) was 14.31% and the “weight increase rate (%)” value ([3]; 65 min) was 15.69%. The “state of the crystals” value ([3]; 80 min) was “(entirely liquefied)”, the “weight increase rate (%)” value ([3]; 80 min) was 17.16% and the “weight increase rate (%)” value ([3]; 95 min) was 18.31%. The “weight increase rate (%)” value ([3]; 110 min) was 19.42%, the “weight increase rate (%)” value ([3]; 125 min) was 20.54% and the “weight increase rate (%)” value ([3]; 140 min) was 21.66%. For the same compound, the “weight increase rate (%)” value ([3]; 155 min) was 22.62%, the “weight increase rate (%)” value ([3]; 170 min) was 23.55% and the “weight increase rate (%)” value ([3]; 185 min) was 24.41%. The “weight increase rate (%)” value ([3]; 200 min) was 25.14%.
